# Assay results reported in ChEMBL document CHEMBL3351714 (Bioorg Med Chem, 2014).
# Experiments:
# D(1A) dopamine receptor [1] = molecular target: T1, D(1A) dopamine receptor (Homo sapiens, UniProt P21728); assay: Displacement of [3H]SCH23390 from D1 receptor (unknown origin) transfected in HEK293T cells at 10 uM after 50 mins by liquid scintillation counting analysis; type: cell-based; settings: HEK-293T
# [2] = molecular target: T2, 5-hydroxytryptamine receptor 1A (Homo sapiens) (UniProt P08908); assay: Displacement of [3H]8-OH-DPAT from 5HT1A receptor (unknown origin) transfected in HEK293T cells at 10 uM after 50 mins by liquid scintillation counting analysis; type: cell-based; settings: HEK-293T
# T2 sequence (whole entry): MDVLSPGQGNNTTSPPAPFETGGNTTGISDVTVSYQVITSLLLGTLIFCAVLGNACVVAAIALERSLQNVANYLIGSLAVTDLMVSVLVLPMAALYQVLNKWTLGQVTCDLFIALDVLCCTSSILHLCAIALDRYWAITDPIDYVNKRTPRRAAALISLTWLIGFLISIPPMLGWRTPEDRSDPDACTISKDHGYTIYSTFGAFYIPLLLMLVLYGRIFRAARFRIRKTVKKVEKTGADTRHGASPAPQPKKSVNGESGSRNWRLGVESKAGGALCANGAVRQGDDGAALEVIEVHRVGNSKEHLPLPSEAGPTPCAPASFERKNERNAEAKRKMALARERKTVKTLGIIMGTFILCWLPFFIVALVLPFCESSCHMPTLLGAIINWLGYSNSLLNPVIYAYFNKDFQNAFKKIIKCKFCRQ
# D(2) dopamine receptor [3] = molecular target: T3, D(2) dopamine receptor (Homo sapiens, UniProt P14416); assay: Displacement of [3H]Spiperone from D2 receptor (unknown origin) transfected in HEK293T cells at 10 uM after 50 mins by liquid scintillation counting analysis; type: cell-based; settings: HEK-293T
# [4] = molecular target: 5-hydroxytryptamine receptor 2A (Homo sapiens) (UniProt P28223); assay: Displacement of [3H]Ketanserin from 5HT2A receptor (unknown origin) transfected in HEK293T cells at 10 uM after 15 mins by liquid scintillation counting analysis; type: cell-based; settings: HEK-293T
# D(2) dopamine receptor [5] = molecular target: T3, D(2) dopamine receptor; assay: Displacement of [3H]Spiperone from D2 receptor (unknown origin) transfected in HEK293T cells after 50 mins by liquid scintillation counting analysis; type: cell-based, HEK-293T
# D(1A) dopamine receptor [6] = molecular target: T1, D(1A) dopamine receptor; assay: Displacement of [3H]SCH23390 from D1 receptor (unknown origin) transfected in HEK293T cells after 50 mins by liquid scintillation counting analysis; type: cell-based, HEK-293T
# D(1A) dopamine receptor [7] = molecular target: T1, D(1A) dopamine receptor; assay: Antagonist activity at D1 receptor (unknown origin) after 40 mins by [35S]GTP-gammaS binding assay in presence of SKF38393; type: functional
# D(3) dopamine receptor = D(3) dopamine receptor (Homo sapiens, UniProt P35462); assay: Displacement of [3H]Spiperone from D3 receptor (unknown origin) transfected in HEK293T cells after 50 mins by liquid scintillation counting analysis; type: cell-based, HEK-293T
# [8] = molecular target: T4, 5-hydroxytryptamine receptor 1A (Homo sapiens, UniProt P08908); assay: Agonist activity at 5HT1A receptor (unknown origin) after 20 mins by [35S]GTP-gammaS binding assay; type: functional
# T4 sequence (P08908 whole entry): T2 sequence (whole entry)
# D(2) dopamine receptor [9] = molecular target: T3, D(2) dopamine receptor; assay: Antagonist activity at D2 receptor (unknown origin) after 40 mins by [35S]GTP-gammaS binding assay in presence of quinpirole; type: functional
# [10] = molecular target: T4, 5-hydroxytryptamine receptor 1A; assay: Displacement of [3H]8-OH-DPAT from 5HT1A receptor (unknown origin) transfected in HEK293T cells after 50 mins by liquid scintillation counting analysis; type: cell-based, HEK-293T
# D(1A) dopamine receptor [11] = molecular target: T1, D(1A) dopamine receptor; assay: Agonist activity at D1 receptor (unknown origin) after 40 mins by [35S]GTP-gammaS binding assay; type: functional
# 5-hydroxytryptamine receptor 2A (Homo sapiens), sequence (P28223 whole entry): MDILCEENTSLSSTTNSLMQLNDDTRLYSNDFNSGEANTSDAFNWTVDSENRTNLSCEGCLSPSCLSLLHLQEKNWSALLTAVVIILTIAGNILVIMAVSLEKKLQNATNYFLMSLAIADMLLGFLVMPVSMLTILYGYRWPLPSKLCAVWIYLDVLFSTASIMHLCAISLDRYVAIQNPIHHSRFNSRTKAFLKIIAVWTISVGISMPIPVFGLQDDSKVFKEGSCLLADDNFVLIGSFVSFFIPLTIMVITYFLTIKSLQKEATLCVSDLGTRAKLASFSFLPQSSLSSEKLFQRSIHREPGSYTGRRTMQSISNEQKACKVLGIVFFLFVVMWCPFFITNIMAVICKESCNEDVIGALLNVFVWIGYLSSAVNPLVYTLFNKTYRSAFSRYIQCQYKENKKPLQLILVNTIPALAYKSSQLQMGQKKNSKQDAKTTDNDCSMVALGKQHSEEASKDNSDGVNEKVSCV
# T3 sequence (P14416 whole entry): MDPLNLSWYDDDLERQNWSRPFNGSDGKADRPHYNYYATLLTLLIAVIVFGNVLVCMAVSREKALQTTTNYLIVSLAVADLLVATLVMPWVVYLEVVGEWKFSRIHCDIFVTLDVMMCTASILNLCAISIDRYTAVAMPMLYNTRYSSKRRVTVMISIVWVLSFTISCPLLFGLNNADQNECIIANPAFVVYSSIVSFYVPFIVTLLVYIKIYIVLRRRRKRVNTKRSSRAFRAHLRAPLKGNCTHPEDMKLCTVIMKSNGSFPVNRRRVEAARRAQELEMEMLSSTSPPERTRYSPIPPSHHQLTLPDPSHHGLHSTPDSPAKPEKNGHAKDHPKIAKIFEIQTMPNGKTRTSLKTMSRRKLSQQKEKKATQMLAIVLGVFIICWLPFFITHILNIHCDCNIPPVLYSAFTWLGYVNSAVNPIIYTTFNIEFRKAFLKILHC
# D(3) dopamine receptor, sequence (P35462 whole entry): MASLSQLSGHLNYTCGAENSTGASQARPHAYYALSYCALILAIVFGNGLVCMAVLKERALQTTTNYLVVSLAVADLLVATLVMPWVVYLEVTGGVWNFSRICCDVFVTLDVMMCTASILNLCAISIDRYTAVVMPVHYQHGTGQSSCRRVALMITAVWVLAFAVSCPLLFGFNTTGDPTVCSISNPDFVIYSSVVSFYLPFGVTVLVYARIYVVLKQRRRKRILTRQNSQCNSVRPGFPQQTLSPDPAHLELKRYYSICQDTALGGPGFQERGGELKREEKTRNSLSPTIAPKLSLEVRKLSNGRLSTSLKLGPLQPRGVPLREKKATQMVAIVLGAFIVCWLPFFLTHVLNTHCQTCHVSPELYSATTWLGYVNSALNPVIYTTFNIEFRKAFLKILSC
# T1 sequence (P21728 whole entry): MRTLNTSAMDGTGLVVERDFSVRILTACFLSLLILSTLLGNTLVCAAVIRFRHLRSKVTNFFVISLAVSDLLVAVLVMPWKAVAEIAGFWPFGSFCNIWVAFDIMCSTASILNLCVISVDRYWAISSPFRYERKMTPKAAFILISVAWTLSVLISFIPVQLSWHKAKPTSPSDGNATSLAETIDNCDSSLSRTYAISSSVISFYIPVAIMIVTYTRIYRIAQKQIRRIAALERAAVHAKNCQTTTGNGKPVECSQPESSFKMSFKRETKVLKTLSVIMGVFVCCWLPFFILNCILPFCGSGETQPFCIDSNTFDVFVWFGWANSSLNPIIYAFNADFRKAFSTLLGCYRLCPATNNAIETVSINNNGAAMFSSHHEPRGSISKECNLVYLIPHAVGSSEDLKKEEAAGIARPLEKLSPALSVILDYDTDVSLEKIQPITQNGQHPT
SMILES,inhibition (D(1A) dopamine receptor [1]),inhibition [2],inhibition (D(2) dopamine receptor [3]),inhibition [4],Ki (D(2) dopamine receptor [5]),Ki (D(1A) dopamine receptor [6]),IC50 (D(1A) dopamine receptor [7]),Ki (D(3) dopamine receptor),EC50 [8],IC50 (D(2) dopamine receptor [9]),Ki [10],EC50 (D(1A) dopamine receptor [11])
COc1cc2c(cc1O)[C@@H]1Cc3sc(CCCC(C)C)cc3CN1CC2,68.1%,36.3%,89%,34.9%,,,,,,,,
COc1cc2c(cc1O)[C@@H]1Cc3sccc3CN1CC2,98.1%,89.7%,95.8%,82.3%,88 nM,87 nM,,,,,,
COc1cc2c(cc1O)[C@@H]1Cc3sc(CC(C)C)cc3CN1CC2,97.6%,83.7%,,50.3%,7.54 nM,128 nM,2010 nM,19.9 nM,590 nM,160 nM,,
CCC(C)Cc1cc2c(s1)C[C@H]1c3cc(O)c(OC)cc3CCN1C2 (some centres undefined),92%,69.4%,102%,33.4%,29.1 nM,403 nM,,,,,,
COc1cc2c(cc1O)[C@@H]1Cc3sc(CC(C)(C)C)cc3CN1CC2,93.8%,79.8%,97%,19.3%,190 nM,634 nM,,,,,,
COc1cc2c(cc1O)[C@@H]1Cc3sc(CC(C)Cl)cc3CN1CC2 (some centres undefined),91.5%,91.6%,105%,52.1%,16.5 nM,45.8 nM,,,,,285 nM,
COc1cc2c(cc1O)[C@@H]1Cc3sc(CC4CC4)cc3CN1CC2,96.8%,96.1%,99%,39.3%,11.5 nM,66.2 nM,,,,,175 nM,
COc1cc2c(cc1O)[C@@H]1Cc3ccc(O)c(OC)c3CN1CC2 [STEPHOLIDINE],,,,,105 nM,12.3 nM,,90 nM,,4380 nM,,23 nM
COc1cc2c(cc1O)[C@@H]1Cc3sc(CC4CCC4)cc3CN1CC2,97.1%,93.7%,98.7%,44.9%,34.2 nM,379 nM,,,,,778 nM,
COc1cc2c(cc1O)[C@@H]1Cc3sc(CCCCCl)cc3CN1CC2,91.1%,91.9%,103%,39.6%,12 nM,719 nM,,,,,655 nM,

# Further lines, results first:
inhibition (D(1A) dopamine receptor [1]),inhibition [2],inhibition (D(2) dopamine receptor [3]),inhibition [4],Ki (D(2) dopamine receptor [5]),Ki (D(1A) dopamine receptor [6]),IC50 (D(1A) dopamine receptor [7]),Ki (D(3) dopamine receptor),EC50 [8],IC50 (D(2) dopamine receptor [9]),Ki [10],EC50 (D(1A) dopamine receptor [11]),SMILES
98.2%,92.1%,98.5%,45.1%,40.8 nM,26.3 nM,,,,,,,CCc1cc2c(s1)C[C@H]1c3cc(O)c(OC)cc3CCN1C2
94.3%,92.2%,97.2%,62.1%,18.4 nM,77 nM,,,,,,,COc1cc2c(cc1O)[C@@H]1Cc3sc(CCCCl)cc3CN1CC2
98.2%,85.3%,96.3%,29.6%,38.6 nM,61.7 nM,,,,,,,CCCc1cc2c(s1)C[C@H]1c3cc(O)c(OC)cc3CCN1C2
98.6%,90%,99.5%,53.3%,17.6 nM,62.2 nM,600 nM,39.9 nM,850 nM,910 nM,,,CCCCc1cc2c(s1)C[C@H]1c3cc(O)c(OC)cc3CCN1C2
94.7%,81.7%,103%,45.9%,46.7 nM,133 nM,,,,,,,CCCCCc1cc2c(s1)C[C@H]1c3cc(O)c(OC)cc3CCN1C2
96.7%,90.8%,98.4%,34.8%,34.4 nM,16.4 nM,,,,,,,COc1cc2c(cc1O)[C@@H]1Cc3sc(CCCl)cc3CN1CC2
88.8%,86.9%,90.5%,50.5%,79.5 nM,,,,,,,,COc1cc2c(cc1O)[C@@H]1Cc3sc(CCC(C)C)cc3CN1CC2
